The target of the assay is T1, Retinoic acid receptor alpha (Homo sapiens) (UniProt P10276).
T1 sequence (whole entry): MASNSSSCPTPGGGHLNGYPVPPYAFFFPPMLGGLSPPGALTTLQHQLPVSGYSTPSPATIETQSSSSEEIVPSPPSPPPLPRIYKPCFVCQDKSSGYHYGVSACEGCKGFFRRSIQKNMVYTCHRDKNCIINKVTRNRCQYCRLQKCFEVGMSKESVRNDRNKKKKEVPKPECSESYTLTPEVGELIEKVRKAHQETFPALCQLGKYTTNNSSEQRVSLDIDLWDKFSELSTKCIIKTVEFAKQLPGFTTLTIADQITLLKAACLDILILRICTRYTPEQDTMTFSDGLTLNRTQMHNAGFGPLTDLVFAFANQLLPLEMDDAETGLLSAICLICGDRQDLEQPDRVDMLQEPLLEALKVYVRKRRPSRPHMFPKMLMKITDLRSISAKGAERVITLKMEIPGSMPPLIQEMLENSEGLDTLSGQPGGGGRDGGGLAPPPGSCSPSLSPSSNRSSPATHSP
Nature of the assay: Transactivation of RARalpha expressed in mammalian cells assessed as effect on palindromic thyroid hormone response element-driven transcriptional activation by luciferase reporter gene assay. The assay is classed as cell-based. (In general: Reporter assays use an easily measured gene product as a stand-in for the process of interest.)

Activity calls are given as the source filed them. The rule behind the calls is not given here.

On to `CC1=C(/C=C/C(C)=C\C=C\C(C)=C\C(=O)O[C@@H]2O[C@H](CO)[C@@H](O)[C@H](O)[C@H]2O)C(C)(C)CCC1`, for which the result was Active.
